In data set [1] the test system is T. cruzi intracellular amastigotes (Tulahuen lacZ strain). Put plainly: Antitrypanosomal assay, intracellular amastigotes in LLC-MK2 cells, CPRG readout. It is filed as cell-based, Trypanosoma cruzi. The note with it: for IC50: Trypanosoma cruzi, read-out: Amastigote IC50 (μM ± SD); for activity category (active / moderately active / inactive): category by amastigote IC50. As to the method:
(§1) The cytotoxicity evaluation and the determination of the selectivity index (SI) were done on LLC-MK2 cells.
Initially, 5 × 10^3 LLC-MK2 cells/well were infected with trypomastigotes in 96-well plates at a parasite/cell ratio of 10:1. After 48 h, plates were washed twice with PBS before adding compounds in a serial dilution range of 100 μM to 0.78 μM in fresh RPMI 1640 medium (Sigma-Aldrich). As a control, infected untreated cells (100% infection control) were employed. Following 72 h of incubation, amastigote viability tests were performed using 50 μL of PBS containing 2% Triton X-100 and 200 μM CPRG. Tulahuen lacZ strain expressing galactosidase enzyme were used, which catalyzes the yellow reagent of CPRG into a red chromophore that can be easily detected by absorbance at 570 nm after 4 h at 37 °C (microplate reader – Synergy H1). The percentage of amastigotes inhibition (IC50) was calculated as 100-(absorbance of treated infected cells)/(absorbance mean of untreated infected cells) × 100.

A short description of another data set: Cytotoxicity assay (MTT). Type of data set: cell-based. The following applies: rhesus monkey, LLC-MK2 cells, read-out: LLC-MK2 CC50 (μM ± SD). On the procedure: as §1
To assess chemical cytotoxicity, MTT (3-(4,5-Dimethyl-2-thiazolyl)-2,5-diphenyl-2H-tetrazolium bromide, Sigma-Aldrich)-based kit reagents were employed. LLC-MK2 cells were incubated in 96-well plates for 48 h at a concentration of 5 × 10^3 cells/well. Cells were then washed twice with PBS (Sigma-Aldrich) before being incubated with compounds in a serial dilution from 200 μM to 1.56 μM in fresh RPMI 1640 medium (Sigma-Aldrich). After 72 h, 50 μL of MTT solution (2.0 mg/mL) was added to each well, and the plates were incubated for another 4 h at 37 °C. The resultant formazan crystals were dissolved in DMSO (50 μ L/well) and measured at 570 nm 30 min later in a Synergy H1 microplate reader. Cytotoxic concentration of 50% (CC50) was calculated based on a dose–response curve excluding DMSO cytotoxicity (>1%) of the untreated control.

Data set [2] deals with T. cruzi amastigote forms. The following applies: triazole with diphenyl ether substituent; ref Assunção et al.; read-out: IC50 against T. cruzi amastigote forms; cited from earlier work.
Where [3] appears, read: LLC-MK2, T. cruzi intracellular amastigotes, Tulahuen lacZ strain, 72 h incubation.
[4] abbreviates: ratio of amastigote IC50 values.

The source of these data is paper PMC12658631, “Synthesis and Antitrypanosomal Activity of Novel 2‑Nitroimidazole-3,5-Disubstituted Isoxazole Derivatives with Diaryl Ether and Thioether Substituents” (ACS Omega, 2025).

Like-named read-outs stand apart in the source and are kept apart here.

As for `O=C(Cn1ccnc1[N+](=O)[O-])NCc1ccccc1` [BZN, benznidazole, reference compound], the “SI, selectivity index: CC50 of LLC-MK2 cells/IC50 of intracellular amastigotes” value (shortened to “SI, selectivity index: CC50”) in data set [1] was more than 17.6. In addition, in data set [1] (setting [3]), the IC50 was found to be 5.67 ± 0.83 µM. Further, the CC50 at 72 h in “Cytotoxicity assay (MTT)” is more than 100 µM.

In the case of `O=[N+]([O-])c1nccn1Cc1cn(-c2ccc(Oc3ccccc3)cc2)nn1` [Compound 4b], the half-inhibitory concentration (IC50) in data set [2] is 6.6 µM.

For the compound `O=[N+]([O-])c1nccn1Cc1cc(-c2ccc(Oc3ccccc3)cc2)no1` [Compound 6a, 5-((2-Nitro-1H-imidazol-1-yl)methyl)-3-(4-phenoxyphenyl)isoxazole], the “SI, selectivity index: CC50” value in data set [1] was more than 82.2. For the same compound, in data set [1] (setting [3]), the half-inhibitory concentration (IC50) amounted to 1.22 ± 0.73 µM. Also, the “fold more active than the reference drug benznidazole (BZN)” value in data set [1] (setting [4]) is 4.6 fold. Also, in data set [1] (ratio of amastigote IC50 values, comparator is a literature value), the “fold more active against amastigote forms than its triazole analog” value worked out at 5.4 fold. For the same compound, in “Cytotoxicity assay (MTT)”, the half-maximal cytotoxic concentration (CC50) at 72 h is more than 100 µM.

With `O=[N+]([O-])c1nccn1Cc1cc(-c2ccc(Oc3ccc(F)cc3)cc2)no1` [Compound 6b, 3-(4-(4-Fluorophenoxy)phenyl)-5-((2-nitro-1H-imidazol-1-yl)methyl)isoxazole], the “SI, selectivity index: CC50” value in data set [1] is more than 199.4. Also, the IC50 in data set [1] (setting [3]) is 0.5 ± 0.51 µM. The CC50 at 72 h in “Cytotoxicity assay (MTT)” is more than 100 µM.

For the compound `O=[N+]([O-])c1nccn1Cc1cc(-c2ccc(Oc3ccc(Cl)cc3)cc2)no1` [Compound 6c, 3-(4-(4-Chlorophenoxy)phenyl)-5-((2-nitro-1H-imidazol-1-yl)methyl)isoxazole], the “SI, selectivity index: CC50” value in data set [1] is recorded as more than 99.0. In addition, the 50% inhibitory concentration (IC50) in data set [1] (setting [3]) stood at 1.01 ± 1.13 µM. In data set [1] (setting [4]), the “fold less active than 6b” value is listed as 2 fold. The cytotoxic concentration (CC50) at 72 h in the data set “Cytotoxicity assay (MTT)” is more than 100 µM.

As to `O=[N+]([O-])c1nccn1Cc1cc(-c2ccc(Oc3ccc(Cl)c(Cl)c3)cc2)no1` [Compound 6d, 3-(4-(3,4-Dichlorophenoxy)phenyl)-5-((2-nitro-1H-imidazol-1-yl)methyl)isoxazole], in data set [1], the “SI, selectivity index: CC50” value was more than 35.9 and the “activity category (active / moderately active / inactive)” value is reported as “active”. Also, the concentration for half-maximal inhibition (IC50) in data set [1] (setting [3]) is 2.79 ± 0.93 µM. Further, the CC50 at 72 h in “Cytotoxicity assay (MTT)” was more than 100 µM.

With `O=[N+]([O-])c1nccn1Cc1cc(-c2ccc(Oc3ccc(OC(F)(F)F)cc3)cc2)no1` [Compound 6e, 5-((2-Nitro-1H-imidazol-1-yl)methyl)-3-(4-(4-(trifluoromethoxy)phenoxy)phenyl)isoxazole], the “SI, selectivity index: CC50” value in data set [1] was more than 80.1. The IC50 in data set [1] (setting [3]) was found to be 1.25 ± 0.71 µM. Further, the CC50 at 72 h in “Cytotoxicity assay (MTT)” was more than 100 µM.

Take `Cc1ccc(Oc2ccc(-c3cc(Cn4ccnc4[N+](=O)[O-])on3)cc2)cc1` [Compound 6f, 5-((2-Nitro-1H-imidazol-1-yl)methyl)-3-(4-(P-tolyloxy)phenyl)isoxazole]: the “SI, selectivity index: CC50” value in data set [1] was more than 56.5. Besides, the 50% inhibitory concentration (IC50) in data set [1] (setting [3]) stood at 1.77 ± 0.24 µM. The CC50 at 72 h in “Cytotoxicity assay (MTT)” is more than 100 µM.

Take `COc1ccc(Oc2ccc(-c3cc(Cn4ccnc4[N+](=O)[O-])on3)cc2)cc1` [Compound 6g, 3-(4-(4-Methoxyphenoxy)phenyl)-5-((2-nitro-1H-imidazol-1-yl)methyl)isoxazole]: the “SI, selectivity index: CC50” value in data set [1] is more than 155.3. Also, the IC50 in data set [1] (setting [3]) came out at 0.64 ± 0.05 µM. In addition, the CC50 at 72 h in the data set “Cytotoxicity assay (MTT)” was more than 100 µM.

In the case of `O=[N+]([O-])c1nccn1Cc1cc(-c2ccc(Oc3ccccc3)c(F)c2)no1` [Compound 6h, 3-(3-Fluoro-4-phenoxyphenyl)-5-((2-nitro-1H-imidazol-1-yl)methyl)isoxazole], in data set [1], the “SI, selectivity index: CC50” value was more than 31.4 and the “activity category (active / moderately active / inactive)” value is reported as “active”. Moreover, the IC50 in data set [1] (setting [3]) amounted to 3.18 ± 2.18 µM. For the same compound, in the data set “Cytotoxicity assay (MTT)”, the CC50 at 72 h is more than 100 µM.

In the case of `O=[N+]([O-])c1nccn1Cc1cc(-c2ccc(Oc3ccc(F)cc3)c(F)c2)no1` [Compound 6i, 3-(3-Fluoro-4-(4-fluorophenoxy)phenyl)-5-((2-nitro-1H-imidazol-1-yl)methyl)isoxazole], the “SI, selectivity index: CC50” value in data set [1] is more than 70.4. Besides, in data set [1] (setting [3]), the IC50 amounted to 1.42 ± 0.42 µM. The “fold less active than 6b” value in data set [1] (setting [4]) is recorded as 2.8 fold. For the same compound, the cytotoxic concentration (CC50) at 72 h in “Cytotoxicity assay (MTT)” was more than 100 µM.

For the compound `O=[N+]([O-])c1nccn1Cc1cc(-c2ccc(Oc3ccc(Cl)cc3)c(F)c2)no1` [Compound 6j, 3-(4-(4-Chlorophenoxy)-3-fluorophenyl)-5-((2-nitro-1H-imidazol-1-yl)methyl)isoxazole], in data set [1], the “SI, selectivity index: CC50” value is more than 64.1. The half-maximal inhibitory concentration (IC50) in data set [1] (setting [3]) is 1.56 ± 0.69 µM. Besides, in the data set “Cytotoxicity assay (MTT)”, the CC50 at 72 h is more than 100 µM.

Turning to `O=[N+]([O-])c1nccn1Cc1cc(-c2ccc(Oc3ccc(Cl)c(Cl)c3)c(F)c2)no1` [Compound 6k, 3-(4-(3,4-Dichlorophenoxy)-3-fluorophenyl)-5-((2-nitro-1H-imidazol-1-yl)methyl)isoxazole], in data set [1], the “SI, selectivity index: CC50” value was more than 11.8 and the “activity category (active / moderately active / inactive)” value is given as “moderate activity”. Moreover, in data set [1] (setting [3]), the IC50 turned out to be 8.5 ± 2.06 µM. The CC50 at 72 h in “Cytotoxicity assay (MTT)” is more than 100 µM.

Regarding `O=[N+]([O-])c1nccn1Cc1cc(-c2ccc(Oc3ccc(OC(F)(F)F)cc3)c(F)c2)no1` [Compound 6l, 3-(3-Fluoro-4-(4-(trifluoromethoxy)phenoxy)phenyl)-5-((2-nitro-1H-imidazol-1Yl)methyl)isoxazole], the “SI, selectivity index: CC50” value in data set [1] was more than 14.7. Further, the half-inhibitory concentration (IC50) in data set [1] (TULAHUEN, LLC-MK2, 72 h) was 3.77 ± 0.07 µM.

As to `Cc1ccc(Oc2ccc(-c3cc(Cn4ccnc4[N+](=O)[O-])on3)cc2F)cc1` [Compound 6m, 3-(3-Fluoro-4-(P-tolyloxy)phenyl)-5-((2-nitro-1H-imidazol-1-yl)methyl)isoxazole], the “SI, selectivity index: CC50” value in data set [1] is reported as more than 13.5. Further, the IC50 in data set [1] (setting [3]) stood at 7.41 ± 3.22 µM. The “fold less active than 6f” value in data set [1] (setting [4]) is 4 fold. The CC50 at 72 h in “Cytotoxicity assay (MTT)” was more than 100 µM.

With `COc1ccc(Oc2ccc(-c3cc(Cn4ccnc4[N+](=O)[O-])on3)cc2F)cc1` [Compound 6n, 3-(3-Fluoro-4-(4-methoxyphenoxy)phenyl)-5-((2-nitro-1H-imidazol-1-yl)methyl)isoxazole], the “SI, selectivity index: CC50” value in data set [1] was more than 28.2. In addition, in data set [1] (setting [3]), the 50% inhibitory concentration (IC50) stood at 3.54 ± 0.21 µM. For the same compound, the “fold less activity than 6g” value in data set [1] (setting [4]) was found to be 5.5 fold. The CC50 at 72 h in the data set “Cytotoxicity assay (MTT)” was more than 100 µM.

As to `O=[N+]([O-])c1nccn1Cc1cc(-c2ccc(Sc3ccccc3)cc2)no1` [Compound 6o, 5-((2-Nitro-1H-imidazol-1-yl)methyl)-3-(4-(phenylthio)phenyl)isoxazole], in data set [1], the “SI, selectivity index: CC50” value is recorded as more than 4.9 and the “activity category (active / moderately active / inactive)” value is recorded as “moderate activity”. Moreover, the concentration for half-maximal inhibition (IC50) in data set [1] (setting [3]) was determined as 20.6 ± 0.98 µM. The CC50 at 72 h in “Cytotoxicity assay (MTT)” is more than 100 µM.

As for `O=[N+]([O-])c1nccn1Cc1cc(-c2ccc(Sc3ccc(Cl)cc3)cc2)no1` [Compound 6p, 3-(4-((4-Chlorophenyl)thio)phenyl)-5-((2-nitro-1H-imidazol-1-yl)methyl)isoxazole], the “SI, selectivity index: CC50” value in data set [1] was more than 9.0. In addition, in data set [1] (setting [3]), the IC50 is 11.1 ± 0.16 µM. Also, in the data set “Cytotoxicity assay (MTT)”, the half-maximal cytotoxic concentration (CC50) at 72 h was more than 100 µM.

As for `Cc1ccc(Sc2ccc(-c3cc(Cn4ccnc4[N+](=O)[O-])on3)cc2)cc1` [Compound 6q, 5-((2-Nitro-1H-imidazol-1-yl)methyl)-3-(4-(P-tolylthio)phenyl)isoxazole], in data set [1], the “SI, selectivity index: CC50” value was more than 5.8 and the “activity category (active / moderately active / inactive)” value was “moderate activity”. In data set [1] (setting [3]), the 50% inhibitory concentration (IC50) amounted to 17.1 ± 0.24 µM. The cytotoxic concentration (CC50) at 72 h in the data set “Cytotoxicity assay (MTT)” was more than 100 µM.

Usually IC50 stands for the concentration needed to halve the response being measured. What is called CC50 is the concentration at which the toxic effect on the cells reaches its halfway point.
